In patent US20250255876A1, “COMPOSITIONS AND METHODS FOR CANCER TREATMENT” (ARIEL SCIENTIFIC INNOVATIONS LTD., priority 2021, published 2025):

What was measured:
Assay type in all cases: cell-based
[1] = test system: U2OS cells; assay: Colony survival assay, U2OS cells; conditions: varying cisplatin, 48 hours
Experimental: (§1) H1975 cells were plated in 24-well plates at 50,000 cells/well (for 50 µM inhibitor treatment) or 20,000 cells/well (for […] inhibitor treatment). U2OS and A549 cells were plated in 24-well plates at 5000 cells/well. The next day, cells were treated with varying concentrations of cisplatin, either with or without added inhibitor compound. After 48 hours of cisplatin+compound treatment, the cells were washed 3 times with PBS×1 and fresh media applied. After 4 days of recovery, the cells were stained with methylene blue and imaged using a Nikon SMZ25 stereomicroscope. The images were analyzed using the ImageJ (National Institutes of Health) area measurement tool to quantify total colony size in each well.

[2] = test system: A549 cells; assay: Colony survival assay, A549 cells; conditions: A549, 5 μM cisplatin
Experimental: as §1
(§2) Cells were plated in 24-well plates at 50,000 cells/well (H1975 line) or 10,000 cells/well (A549 line). The next day, cells were treated with varying concentrations of cisplatin ([…]), with or without 50 μM compound. For the untreated control wells containing only cisplatin, DMSO was applied in place of the compound. After 48 hours of cisplatin+compound treatment, the cells were washed 3 times with PBS and fresh media was applied. After 4 days of recovery, the cells were stained with methylene blue and imaged using a Nikon SMZ25 stereomicroscope. The images were analyzed using the ImageJ (National Institutes of Health) area measurement tool to quantify total colony size in each well.
(§3) In order to assess the ability of the selected compounds to sensitize cells during cisplatin treatment, the inventors established a colony survival assay comparing the viability of cells treated with cisplatin alone or with combined treatment of cisplatin and 50 μM compound. For the compound screen, we used two lung cancer cell lines: human non-small lung carcinoma H1975 cells, and epithelial lung adenocarcinoma A549 cells. Out of ten compounds tested, compounds c #2 and c #3 were identified with the most significant sensitization effect and were chosen for future characterization. […] Survival rate was reduced from 90% in 5 μM cisplatin treatment to 50% survival in the combined treatment (FIGS. 11A-B). H1975 cells presented similar behavior following doxorubicin treatment (FIG. 11C). IC50 was calculated using linear regression, presenting a clear reduction of cisplatin's IC50 in all treatments.

[3] = test system: H1975 cells; assay: Colony survival assay, H1975 cells; conditions: H1975, 5 μM cisplatin
Experimental: as §1, §2, §3

| Structure (SMILES) | cell survival with cisplatin plus inhibitor [1] | survival rate, cisplatin alone [2] [%] | survival rate, cisplatin alone [3] [%] |
| --- | --- | --- | --- |
| CCCC(=O)Nc1cccc(C(=O)Nc2nnc(COC)s2)c1 [Compound 9] | no activity | – | – |
| N.N.[Cl][Pt][Cl] [cisplatin, cis-diamminedichloroplatinum(II), reference compound] | – | 90 | 90 |
